From patent US4473579A, “Antiatherosclerotic tetrasubstituted ureas and thioureas” (American Cyanamid Company, priority 1982, dated 1984)

test system: cholesterol absorption; experiment: Inhibition of cholesterol absorption in cholesterol/cholic acid fed rats (serum or liver cholesterol lowering); type: in vivo, male Sprague-Dawley rats; conditions: 0.03% of the diet; 1% cholesterol: 0.5% cholic acid diet for 2 weeks; lowering of serum or liver cholesterol relative to control rats
Procedure: (§1) The compounds of the present invention were assayed for two types of biological activity related to their potential use as antiatherosclerotic agents. Compounds were tested in vitro for their ability to inhibit the enzyme fatty acyl CoA:cholesterol acyl transferase (ACAT) and in vivo for serum hypolipidemic activity as measured by their ability to inhibit lipid absorption in rats. The compounds were tested for their ability to inhibit ACAT according to the following procedure:
Inhibition of cholesterol absorption was determined by feeding male Sprague-Dawley rats, weighing 150-170 g., a 1% cholesterol: 0.5% cholic acid diet for 2 weeks. The diet was contained compounds being tested at a dose of 0.03% of the diet. Control rats were fed the same diet without any compound. At the end of the test, the rats were sacrificed by decapitation. Blood is collected, centrifuged at 1.5 kg times gravity for 10 minutes at 4° C., and the serum is then analyzed for cholesterol and triglycerides enzymatically by the method of Trinder, P., Analyst, 77, 321 (1952) on a Centrifichem 400 Analyzer. […] The resulting neutral sterols are extracted with petroleum ether and extract analyzed for cholesterol. The effectiveness of the compound in inhibiting cholesterol absorption is measured by the lowering of either serum cholesterol or liver cholesterol relative the values for control rats.

Row | Compound | Result (inhibition of cholesterol absorption)
1 | CCCCN(Cc1ccccc1)C(=O)N(c1ccccc1)c1cccc(OC)c1 [1-Benzyl-1-(n-butyl)-3-(3-methoxyphenyl)-3-phenylurea] | Active

target: T1, fatty acyl CoA:cholesterol acyl transferase (ACAT) (Rattus norvegicus, UniProt O70536); experiment: In vitro inhibition of fatty acyl CoA:cholesterol acyl transferase (ACAT), rat adrenal supernatant; type: biochemical; conditions: test compound final concentration 5.2 g./ml. (so in the source), pH 7.4, 37° C., 10 minutes
T1 construct: Rat adrenals were homogenized in 0.2M monobasic potassium phosphate buffer; from tissue; host or cells: rat adrenals, 1000 x g supernatant containing the microsomal fraction
T1 sequence (O70536 1-545): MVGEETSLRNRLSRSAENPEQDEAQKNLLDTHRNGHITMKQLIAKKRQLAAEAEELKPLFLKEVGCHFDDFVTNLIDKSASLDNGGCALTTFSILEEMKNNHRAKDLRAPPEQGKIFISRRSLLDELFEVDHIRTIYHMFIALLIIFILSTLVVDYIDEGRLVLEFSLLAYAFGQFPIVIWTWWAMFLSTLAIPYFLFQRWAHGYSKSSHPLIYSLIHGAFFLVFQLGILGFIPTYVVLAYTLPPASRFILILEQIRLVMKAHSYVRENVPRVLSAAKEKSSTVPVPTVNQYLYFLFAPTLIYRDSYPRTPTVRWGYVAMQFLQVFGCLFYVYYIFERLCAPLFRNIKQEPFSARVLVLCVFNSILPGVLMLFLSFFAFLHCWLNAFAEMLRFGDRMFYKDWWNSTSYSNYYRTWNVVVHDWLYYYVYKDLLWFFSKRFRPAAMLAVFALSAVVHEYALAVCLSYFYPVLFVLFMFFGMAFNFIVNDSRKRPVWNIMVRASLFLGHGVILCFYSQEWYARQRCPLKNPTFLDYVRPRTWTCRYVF
Procedure: as §1
Rat adrenals were homogenized in 0.2M monobasic potassium phosphate buffer, pH 7.4, and centrifuged at 1000 times gravity for 15 minutes at 5° C. The supernatant, containing the microsomal fraction, served as the source of the cholesterol-esterifying enzyme, fatty acyl CoA:cholesterol acyl transferase (ACAT). A mixture comprising 50 parts of adrenal supernatant, 10 parts of albumin (BSA) (50 mg./ml.), 3 parts of test compound (final concentration […].) and 500 parts of buffer was preincubated at 37° C. for 10 minutes. After treatment with 20 parts of oleoyl CoA(^14 C-[…]) the mixture was incubated at 37° C. for 10 minutes. A control mixture, omitting the test compound, was prepared and treated in the same manner. The lipids from the incubation mixture were extracted into an organic solvent and separated by thin-layer chromatography. The cholesteryl ester fraction was counted in a scintillation counter. This procedure is a modification of that described by Hashimoto, et al., Life Scie., 12 (Part II), 1-12 (1973).

Row | Compound | % Inhibition (ACAT)
2 | CCCCN(Cc1ccccc1)C(=O)N(CCCC)Cc1ccccc1 [1,3-Dibenzyl-1,3-di-(n-butyl)urea] | 95.4%
3 | CCCCN(Cc1ccccc1)C(=O)N(Cc1ccccc1)c1ccccc1 [1,3-Dibenzyl-1-(n-butyl)-3-phenylurea] | 81.8%
4 | CCCCN(Cc1ccccc1)C(=O)N(c1ccc2ccccc2c1)c1ccc2ccccc2c1 [1-Benzyl-1-(n-butyl)-3,3-di(2-naphthyl)urea] | 93.2%
5 | CCCCN(Cc1ccccc1)C(=O)N(c1ccccc1)c1cccc2ccccc12 [1-Benzyl-1-(n-butyl)-3-(1-naphthyl)-3-phenylurea] | 76.3%
6 | CCCCN(Cc1ccccc1)C(=O)N(c1cccc(Cl)c1)c1ccc2ccccc2c1 [1-Benzyl-1-(n-butyl)-3-(3-chlorophenyl)-3-(2-naphthyl)urea] | 82.7%

The next lines start with the values.

Row | % Inhibition (ACAT) | Compound
7 | 75.9% | CCCCN(Cc1ccccc1)C(=O)N(c1ccccc1)c1ccccc1 [1-Benzyl-1-(n-butyl)-3,3-diphenylurea]
8 | 83.6% | CCCCN(Cc1ccccc1)C(=O)N(c1ccccc1)c1ccc2ccccc2c1 [1-Benzyl-1-(n-butyl)-3-(2-naphthyl)-3-phenylurea]
9 | 72.3% | CCCCN(Cc1ccccc1)C(=O)N(c1ccccc1)c1cccc(Cl)c1 [1-Benzyl-1-(n-butyl)-3-(3-chlorophenyl)-3-phenylurea]
10 | 82.5% | CCCCN(Cc1ccccc1)C(=O)N(c1ccccc1)c1cccc(OC)c1 [1-Benzyl-1-(n-butyl)-3-(3-methoxyphenyl)-3-phenylurea]
11 | 82.0% | CCCCN(Cc1ccccc1)C(=O)N(c1ccccc1)c1cccc(C)c1 [1-Benzyl-1-(n-butyl)-3-(3-methylphenyl)-3-phenylurea]
12 | 77.8% | CCCCN(Cc1ccccc1)C(=O)N(c1ccccc1)c1ccc(OC(C)C)cc1 [1-Benzyl-1-(n-butyl)-3-(4-isopropoxyphenyl)-3-phenylurea]
